Columns and labels:
[1] = Toxicity in brine shrimp assessed as mortality at 50 ug/ml; format: organism-based; details: artemia, in vivo; read-out: Activity
[2] = Toxicity in brine shrimp assessed as mortality at 20 ug/ml; format: organism-based; details: artemia, in vivo; read-out: Activity
L5178Y = assay: Cytotoxicity against mouse L5178Y cells; format: functional; details: read-out: ED50 (the source's name)
HeLa = assay: Cytotoxicity against human HeLa cells; format: functional; details: read-out: ED50 (the source's name)
PC-12 = assay: Cytotoxicity against rat PC12 cells; format: functional; details: read-out: ED50 (the source's name)
Escherichia coli = assay: Antimicrobial activity against Escherichia coli at 5 to 10 uL; format: functional
Bacillus subtilis = assay: Antimicrobial activity against Bacillus subtilis at 5 to 10 uL; format: functional
Candida albicans = assay: Antimicrobial activity against Candida albicans at 5 to 10 uL; format: functional
Staphylococcus aureus = assay: Antimicrobial activity against Staphylococcus aureus at 5 to 10 uL; format: functional

## CC[C@H](C)[C@H](NC(=O)[C@@H]1CCCN1C(=O)/C1=C\N[C@@H](C(C)C)C(=O)N2CCC[C@H]2C(=O)N[C@@H](C(C)C)C(=O)N[C@@H](Cc2ccccc2)C(=O)N2CCC[C@H]2C(=O)N2CCC[C@H]2C(=O)N[C@@H](CC(C)C)C(=O)N1)C(=O)O [CALLYEARIN H]
[1]
  mortality at 50 ug/ml: 55%
[2]
  mortality at 20 ug/ml: 30%
L5178Y
  EC50: 0.48 µM

## CC[C@H](C)[C@H](NC(=O)[C@H](Cc1ccccc1)NC(=O)[C@H](CC(C)C)NC(=O)[C@@H]1CCCN1C(=O)/C1=C\N[C@@H](C(C)C)C(=O)N2CCC[C@H]2C(=O)N[C@@H](C(C)C)C(=O)N[C@@H](Cc2ccccc2)C(=O)N2CCC[C@H]2C(=O)N1)C(=O)O [CALLYAERIN F]
HeLa
  EC50: > 9 µM
PC-12
  EC50: > 9 µM
Escherichia coli
  inhibition zone (IZ): 0 mm
Bacillus subtilis
  inhibition zone (IZ): 0 mm
Candida albicans
  inhibition zone (IZ): 0 mm
Staphylococcus aureus
  inhibition zone (IZ): 0 mm
L5178Y
  EC50: > 9 µM

## CC[C@H](C)[C@H](NC(=O)[C@@H](NC(=O)[C@@H]1CCCN1C(=O)/C1=C/N[C@@H](CC(C)C)C(=O)N2CCC[C@H]2C(=O)N[C@@H](Cc2ccccc2)C(=O)N[C@@H](Cc2ccccc2)C(=O)N2CCC[C@H]2C(=O)N2CCC[C@H]2C(=O)N[C@@H](C(C)C)C(=O)N1)[C@@H](C)CC)C(=O)NCC(=O)O [CALLYAERIN E]
HeLa
  EC50: 3.4 µM
PC-12
  EC50: 3.8 µM
Escherichia coli
  inhibition zone (IZ): 9 mm
Bacillus subtilis
  inhibition zone (IZ): 15 mm
Candida albicans
  inhibition zone (IZ): 20 mm
[1]
  mortality at 50 ug/ml: 70%
Staphylococcus aureus
  inhibition zone (IZ): 9 mm
[2]
  mortality at 20 ug/ml: 45%
L5178Y
  EC50: 0.39 µM

## CC(C)C[C@@H]1NC(=O)[C@@H]2CCCN2C(=O)[C@H]2CCCN2C(=O)[C@@H]2CCCN2C(=O)[C@@H]2CCCN2C(=O)[C@H](CC(C)C)N/C=C(\C(=O)N2CCC[C@H]2C(=O)N[C@@H](Cc2ccccc2)C(=O)N[C@@H](Cc2ccccc2)C(=O)N[C@@H](Cc2ccccc2)C(=O)O)NC1=O [CALLYAERIN G]
HeLa
  EC50: 4.43 µM
PC-12
  EC50: > 8 µM
L5178Y
  EC50: 0.41 µM

## CC[C@@H]1NC(=O)[C@@H]2C[C@@H](O)CN2C(=O)[C@@H]2CCCN2C(=O)[C@H](Cc2ccccc2)NC(=O)[C@H]([C@H](C)CC)NC(=O)[C@H]([C@H](C)CC)N/C=C(\C(=O)N2CCC[C@H]2C(=O)N[C@H](C(=O)N[C@@H](CC(N)=O)C(=O)N[C@@H](C)C(=O)N[C@H](C(=O)O)[C@@H](C)CC)[C@@H](C)CC)NC(=O)[C@H](CC(C)C)NC1=O [CALLYAERIN D]
Escherichia coli
  inhibition zone (IZ): 0 mm
Bacillus subtilis
  inhibition zone (IZ): 12 mm
Candida albicans
  inhibition zone (IZ): 0 mm
Staphylococcus aureus
  inhibition zone (IZ): 0 mm
L5178Y
  EC50: 3.03 µM

## CC[C@@H](C)[C@@H]1NC(=O)[C@H]([C@@H](C)CC)NC(=O)[C@@H]2C[C@@H](O)CN2C(=O)[C@H]([C@H](C)CC)N/C=C(\C(=O)N2CCC[C@H]2C(=O)N[C@H](C(=O)N[C@H](C(=O)O)[C@@H](C)CC)[C@@H](C)CC)NC(=O)[C@H](CC(C)C)NC(=O)[C@@H]2CCCN2C(=O)[C@@H]2CCCN2C(=O)[C@H](CC(C)C)NC1=O [CALLYAERIN B]
HeLa
  EC50: > 8 µM
PC-12
  EC50: > 8 µM
Escherichia coli
  inhibition zone (IZ): 7 mm
Bacillus subtilis
  inhibition zone (IZ): 0 mm
Candida albicans
  inhibition zone (IZ): 15 mm
[1]
  mortality at 50 ug/ml: 35%
Staphylococcus aureus
  inhibition zone (IZ): 11 mm
[2]
  mortality at 20 ug/ml: 15%
L5178Y
  EC50: 4.14 µM

## CC[C@@H](C)[C@@H]1NC(=O)[C@H](C(C)C)NC(=O)[C@@H]2C[C@@H](O)CN2C(=O)[C@H]([C@@H](C)CC)N/C=C(\C(=O)N2CCC[C@H]2C(=O)N[C@H](C(=O)N[C@@H](Cc2ccccc2)C(=O)NCC(N)=O)[C@@H](C)CC)NC(=O)[C@H](CC(C)C)NC(=O)[C@@H]2CCCN2C(=O)[C@@H]2CCCN2C(=O)[C@H](CC(C)C)NC1=O [CALLYAERIN A]
Escherichia coli
  inhibition zone (IZ): 10 mm
Bacillus subtilis
  inhibition zone (IZ): 0 mm
Candida albicans
  inhibition zone (IZ): 25 mm
Staphylococcus aureus
  inhibition zone (IZ): 9 mm
L5178Y
  EC50: 3.61 µM

— ChEMBL document CHEMBL1250437, “Callyaerins A-F and H, new cytotoxic cyclic peptides from the Indonesian marine sponge Callyspongia aerizusa” (Bioorg Med Chem, 2010)
